This note sets out measurements from publication PMC11035632, “Discovery of gefitinib-1,2,3-triazole derivatives against lung cancer via inducing apoptosis and inhibiting the colony formation” (Scientific Reports, 2024).

One assay relates to A549 cells. As to the kind of experiment: CCK-8 assay for cell proliferation and cytotoxicity, A549. Format: cell-based. To be noted: Homo sapiens, CCK-8, 48 h. As to the method: A549 cells were cultured in a humidified incubator at 37 °C with 5% CO2 in Ham’s F-12 K (PM150910, Procell) supplemented with 10% FBS and 1% Penicillin Streptomycin.
(§1) Three types of lung cells were seeded into 96-well plate at a density of 5 × 10^3 cells per well at logarithmic growth phase and cultured in 37 °C. […] After that, cell viability was determined according to the instruction of the CCK-8 assay. Next, 10 μL of CCK-8 solution was added to each well of the plate and incubate the plate for 1–4 h in the incubator. The absorbance was measured at 450 nm using a microplate reader (Bio-Tek). The percentage of viable cells was measured using the following formula where three independent experiments were performed: [(A450 sample − A450blank)/(A450 control − A450blank)] × 100%.

The test system of the next assay is NCI-H1437 cells. As to the kind of experiment: CCK-8 assay for cell proliferation and cytotoxicity, NCI-H1437. In kind it is cell-based. To be noted: Homo sapiens, CCK-8, 48 h, read-out: IC50 1437. As for the experimental part:
as §1

Assay [1] concerns Bcl-2, caspase9, Cleaved-Caspase3, Cleaved-PARP, MMP9 in H1299 cells. Nature of the assay: Western blot of apoptosis- and migration-related proteins. Format: cell-based, human. To be noted: H1299, 4, 8 or 16 μM, 48 h. From the text:
We conducted an in-depth investigation into the mechanism of apoptosis induced by compounds 7a and 7j. The Bcl-2 protein family is located upstream of the apoptosis signaling pathway. Bcl-2 proteins play an anti-apoptotic role by inhibiting the release of cytochrome C (cyt-c) from mitochondria. Previous literature reports that many anticancer drugs induce apoptosis by downregulating Bcl-2 expression. During apoptosis, the expression of Bcl-2 is inhibited, cyt-c is released, and it binds with the apoptotic protease activation factor to form the apoptosome. This triggers a cascade reaction of Caspase family proteins, with apoptosome promoting the activation of Caspase9. Activated Caspase9 then activates Caspase3, forming the Caspase3 cleavage body, which further activates downstream PARP protein, ultimately promoting cell apoptosis. […] After treating H1299 cells with different concentrations of compounds for 48 h, cell proteins were extracted, and western blot was used to detect the expression changes of apoptosis-related proteins.
Firstly, H1299 cells were treated with different concentrations concentrations of 7a and 7j at 4, 8 and 16 μmol/L for 48 h, cells were harvested using RIPA lysate (R0010, Solarbio) and centrifuged at 12,000 rpm for 15 min at 4 °C, and then the concentration of total protein was measured and taken from the supernatant. Protein was separated by 12% SDS–polyacrylamide gel electrophoresis and transferred to nitrocellulose filter membrane. after blocking in 5% milk for 2 h, the membranes were incubated with specific primary antibody at 4 °C overnight. Next day, NC membranes were incubated for 1 h at room temperature with appropriate secondary antibodies, and then Protein bands was visualizing by chemiluminescence detection (ECL kit, Genview).

`COc1cc2ncnc(Nc3cccc(-c4cn(Cc5cc(F)ccc5Br)nn4)c3)c2cc1OCCCN1CCOCC1` [Compound 7a] returned a half-inhibitory concentration (IC50) with A549 cells of 3.16 ± 0.11 µM. Further, the concentration for half-maximal inhibition (IC50) in the assay on NCI-H1437 cells is 1830 ± 130 nM. Further, in assay [1], the “Bcl-2 protein expression level” value was “decrease”, the “Cleaved-Caspase3 protein expression level” value is reported as “increased”, the “Cleaved-PARP protein expression level” value is reported as “increased” and the MMP9 protein expression entry is on record as “downregulated”. Moreover, the “caspase9 protein expression level” value in assay [1] is given as “decrease”.
